Experiment [1] has as its system OAS1 rs10774671 A-allele splicing. Briefly: RT-PCR for OAS1 alternative splicing profile in Calu-3 (A/A allele) cells. The conditions noted are these: for yield of the p44a splice form (RT-PCR) / yield of the p44a splice form compared with other compound treatment: Calu-3, 10 μM, 18 hours (Example 2). Type of experiment: cell-based, human.
Another experiment has as its target T1, CLK1 (Homo sapiens, UniProt P49759).
T1 construct: Enzyme activity was measured with off-chip mobility shift assay using purified CLK protein
Briefly: Inhibition confirmation test for CLK (off-chip mobility shift assay). Type of experiment: biochemical. The conditions noted are these: at 1 μM; read-out: CLK1 inhibitory activity. Here is the method:
Enzyme activity was measured with off-chip mobility shift assay using purified CLK protein. […] The enzyme reaction was performed at room temperature for 1 hour, and the reaction was terminated by adding QuickScout Screening Assist MSA (Carna Biosciences, Inc.). A substrate peptide and a phosphorylated peptide in the enzyme reaction solution were separated and quantified using the LabChip system (Perkin-Elmer, Waltham, MA, USA), and inhibition of CLK was evaluated by calculating a product ratio using the following formula, the substrate peptide peak height (S), and the phosphorylated peptide peak height (P).
(§1) (P/(P+S)) • P: product-derived peak • S: substrate-derived peak

The target of another experiment is T2, CLK3 (Homo sapiens, UniProt P49761).
T2 construct: Enzyme activity was measured with off-chip mobility shift assay using purified CLK protein
Described as above. Type of experiment: biochemical. Conditions: at 1 μM; read-out: CLK3 inhibitory activity. As for the experimental part: (§2) Enzyme activity was measured with off-chip mobility shift assay using purified CLK protein. DYRKtide-F peptide (1 μM) was used as a substrate, and a composition of a reaction solution used was as follows (20 mM HEPES (pH7.5), 0.01% Triton X-100, 1 mM DT7, 1% DMSO, and ATP (10 μM for CLK1, 150 μM for CLK2, and 75 μM for CLK3)). The enzyme reaction was performed at room temperature for 1 hour, and the reaction was terminated by adding QuickScout Screening Assist MSA (Carna Biosciences, Inc.). A substrate peptide and a phosphorylated peptide in the enzyme reaction solution were separated and quantified using the LabChip system (Perkin-Elmer, Waltham, MA, USA), and inhibition of CLK was evaluated by calculating a product ratio using the following formula, the substrate peptide peak height (S), and the phosphorylated peptide peak height (P).
as §1

A further experiment has as its target T3, CLK2 (Homo sapiens, UniProt P49760).
T3 construct: Enzyme activity was measured with off-chip mobility shift assay using purified CLK protein
Described as above. It counts as biochemical. The conditions noted are these: at 1 μM; read-out: CLK2 inhibitory activity. As for the experimental part: as §2, §1

Results on 3 molecules are retold here after patent publication US20240358684A1, “METHOD FOR ENHANCING INNATE IMMUNE RESPONSE” (Kyoto University, priority 2021, published 2024).

Entries after “also recorded” stand apart in the source; their conditions may differ.

T3 sequence (P49760 whole entry): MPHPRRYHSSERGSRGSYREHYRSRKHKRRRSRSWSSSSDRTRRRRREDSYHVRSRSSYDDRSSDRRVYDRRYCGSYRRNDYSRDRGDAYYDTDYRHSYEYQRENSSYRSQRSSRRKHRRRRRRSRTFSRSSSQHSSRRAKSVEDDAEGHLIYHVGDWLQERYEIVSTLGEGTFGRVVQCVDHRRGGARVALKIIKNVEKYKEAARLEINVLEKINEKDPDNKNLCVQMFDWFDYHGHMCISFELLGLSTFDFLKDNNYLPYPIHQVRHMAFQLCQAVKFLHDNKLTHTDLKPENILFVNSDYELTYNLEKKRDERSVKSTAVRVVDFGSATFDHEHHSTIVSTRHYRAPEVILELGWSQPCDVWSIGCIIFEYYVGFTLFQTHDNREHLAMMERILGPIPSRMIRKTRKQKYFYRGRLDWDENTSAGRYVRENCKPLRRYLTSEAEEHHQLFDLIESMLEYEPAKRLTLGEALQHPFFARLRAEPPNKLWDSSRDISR
T2 sequence (P49761 whole entry): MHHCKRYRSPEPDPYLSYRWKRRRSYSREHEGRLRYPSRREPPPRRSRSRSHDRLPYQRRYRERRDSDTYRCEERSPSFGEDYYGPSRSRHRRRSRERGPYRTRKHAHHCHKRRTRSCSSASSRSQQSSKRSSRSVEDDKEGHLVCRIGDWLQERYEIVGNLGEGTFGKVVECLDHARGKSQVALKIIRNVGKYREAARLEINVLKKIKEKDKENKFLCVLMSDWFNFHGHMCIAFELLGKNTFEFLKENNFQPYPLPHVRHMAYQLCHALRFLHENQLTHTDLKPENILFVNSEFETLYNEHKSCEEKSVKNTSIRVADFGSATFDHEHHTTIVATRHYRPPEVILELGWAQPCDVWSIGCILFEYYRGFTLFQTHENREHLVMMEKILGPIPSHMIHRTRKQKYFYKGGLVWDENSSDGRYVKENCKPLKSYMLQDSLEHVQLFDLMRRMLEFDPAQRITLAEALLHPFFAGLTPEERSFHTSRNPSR
T1 sequence (P49759 whole entry): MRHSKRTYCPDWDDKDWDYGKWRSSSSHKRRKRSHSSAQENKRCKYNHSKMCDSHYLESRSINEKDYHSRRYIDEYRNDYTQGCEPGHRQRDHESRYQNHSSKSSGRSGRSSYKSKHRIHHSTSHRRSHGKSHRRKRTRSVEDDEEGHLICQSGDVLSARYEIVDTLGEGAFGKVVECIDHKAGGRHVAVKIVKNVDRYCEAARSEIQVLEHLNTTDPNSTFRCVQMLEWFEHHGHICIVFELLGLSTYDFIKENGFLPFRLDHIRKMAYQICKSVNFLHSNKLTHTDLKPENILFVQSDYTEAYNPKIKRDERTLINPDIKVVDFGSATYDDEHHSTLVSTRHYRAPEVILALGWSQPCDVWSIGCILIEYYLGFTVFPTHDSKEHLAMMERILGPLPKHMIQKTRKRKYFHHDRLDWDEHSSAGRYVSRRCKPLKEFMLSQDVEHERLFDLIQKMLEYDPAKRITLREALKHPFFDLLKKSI

Consider `c1cncc(-c2ccc3[nH]ncc3c2)c1` [compound 2, 5-pyridin-3-yl-1H-indazole], for which, in experiment [1], the “yield of the p44a splice form (RT-PCR)” value is reported as “increased the yield of the p44a splice form”. Further, the “yield of the p44a splice form compared with other compound treatment” value in experiment [1] is on record as “higher than that in the compound 1 treatment”. The results for the inhibition at 1 µM on CLK1, on CLK3 and at CLK2 were 98.4%, 21.6% and 90.5%, respectively.
The like results for `CCN1/C(=C/C(C)=O)Sc2ccc3occc3c21` [compound 3, 1-(1-ethylfuro[3,2-e][1,3]benzothiazol-2-ylidene)propan-2-one] were, in that order, “increased the yield of the p44a splice form”, “higher than that in the compound 1 treatment; also recorded: higher than that in the compound 2 treatment”, 102%, 32.9% and 96.5%.
`CCN1/C(=C/C(C)=O)Sc2ccc(OC)cc21` [compound 4, 1-(3-ethyl-5-methoxy-1,3-benzothiazol-2-ylidene)propan-2-one, reference compound]: the “yield of p44a splice form (RT-PCR)” value in experiment [1] (Calu-3, 10 μM or 30 μM, 18 hours (Example 3)) is recorded as “increased the yield of p44a splice form”.
